For one experiment, the target named is T1, human PDE2A1 (Homo sapiens, UniProt O00408).
T1 construct: GST; purchased BPS Bioscience (San Diego, Calif.) 60020; host or cells: insect cells
T1 sequence (O00408 1-920 isoform O00408-2): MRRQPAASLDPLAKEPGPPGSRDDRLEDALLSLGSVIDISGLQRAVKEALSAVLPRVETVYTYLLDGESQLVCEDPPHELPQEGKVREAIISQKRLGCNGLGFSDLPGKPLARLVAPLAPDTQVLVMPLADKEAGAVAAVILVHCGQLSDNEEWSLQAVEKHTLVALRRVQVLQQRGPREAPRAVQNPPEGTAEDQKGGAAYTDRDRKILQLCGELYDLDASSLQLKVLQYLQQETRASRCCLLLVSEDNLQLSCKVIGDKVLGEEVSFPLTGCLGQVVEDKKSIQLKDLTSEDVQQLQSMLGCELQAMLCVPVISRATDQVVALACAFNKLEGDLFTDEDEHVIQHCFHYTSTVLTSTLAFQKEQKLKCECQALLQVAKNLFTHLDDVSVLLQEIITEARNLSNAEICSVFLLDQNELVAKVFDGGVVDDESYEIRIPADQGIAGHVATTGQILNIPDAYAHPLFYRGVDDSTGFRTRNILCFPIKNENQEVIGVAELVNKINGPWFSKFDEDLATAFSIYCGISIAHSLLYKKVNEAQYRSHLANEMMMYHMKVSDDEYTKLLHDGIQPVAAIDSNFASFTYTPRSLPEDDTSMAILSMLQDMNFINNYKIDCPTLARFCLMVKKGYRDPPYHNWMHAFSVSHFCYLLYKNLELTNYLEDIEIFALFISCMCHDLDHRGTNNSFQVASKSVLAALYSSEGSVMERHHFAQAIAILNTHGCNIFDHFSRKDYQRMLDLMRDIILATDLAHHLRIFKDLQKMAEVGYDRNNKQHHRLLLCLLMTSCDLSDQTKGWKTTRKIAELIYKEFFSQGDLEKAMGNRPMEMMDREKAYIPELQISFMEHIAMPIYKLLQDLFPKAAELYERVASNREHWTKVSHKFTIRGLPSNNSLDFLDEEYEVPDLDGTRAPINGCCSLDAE
As to the kind of experiment: PDE2 IMAP FP inhibition assay, human enzyme (PDE selectivity panel format). The format is biochemical. The settings on record: Lab A; read-out: Human PDE2 Ki (nM) Lab A. Put shortly:
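GST-tagged human PDE2A1 from insect cells, run at room temperature in 10 mM Tris pH 7.2, 10 mM MgCl2, 1 mM DTT with 50 nM FAM-cAMP plus 1000 nM cGMP for 60 min. IMAP fluorescence polarization read-out; apparent Ki derived using apparent KM 10,000 nM.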
The Ki is the dissociation constant of the complex between target and ligand, obtained from inhibition or displacement. On to `CCc1ccc(C(C)n2cc(-c3cc(=O)[nH]c(C)n3)cn2)c(Cl)c1` (single isomer, unassigned) [Example 99, (R)- or (S)-6-(1-(1-(2-chloro-4-ethylphenyl)ethyl)-1H-pyrazol-4-yl)-2-methylpyrimidin-4(3H)-one], for which the Ki came to 10.4 nM. Still for that read-out and setting: with `CC(C)c1nc(-c2cnn(C(C)c3ccc(C(F)(F)F)cc3F)c2)cc(=O)[nH]1` (stereo not shown) [Example 9, 6-(1-(1-(2-Fluoro-4-(trifluoromethyl)phenyl)ethyl)-1H-pyrazol-4-yl)-2-isopropylpyrimidin-4(3H)-one] the figure was 104 nM. On the same count and under the same terms, with `Cc1nc(-c2cnn(C3(c4ccc(C(F)(F)F)cc4F)CCC3)c2)cc(=O)[nH]1` [Example 37, 6-(1-(1-(2-fluoro-4-(trifluoromethyl)phenyl)cyclobutyl)-1H-pyrazol-4-yl)-2-methylpyrimidin-4(3H)-one] the figure was 7.9 nM; with `CCc1ccc(C(C)n2cc(-c3cc(=O)[nH]c(C)n3)cn2)c(F)c1` (single isomer, unassigned) [Example 101, (R)- or (S)-6-(1-(1-(4-ethyl-2-fluorophenyl)ethyl)-1H-pyrazol-4-yl)-2-methylpyrimidin-4(3H)-one], 38.5 nM. As to `COc1cccc(Cc2nc(-c3cnn(C(C)c4ccc(C(F)(F)F)cc4F)c3)cc(=O)[nH]2)c1` (single isomer, unassigned) [Example 141, (S)- or (R)-6-(1-(1-(2-fluoro-4-(trifluoromethyl)phenyl)ethyl)-1H-pyrazol-4-yl)-2-(3-methoxybenzyl)pyrimidin-4(3H)-one], the Ki stood at 17.3 nM. As for `COc1ccc(Cc2nc(-c3cnn(C(C)c4ccc(S(F)(F)(F)(F)F)cc4)c3)cc(=O)[nH]2)cc1OC` (single isomer, unassigned) [Example 64, (R)- or (S)-2-(3,4-dimethoxybenzyl)-6-(1-(1-(4-(pentafluorosulfanyl)phenyl)ethyl)-1H-pyrazol-4-yl)pyrimidin-4(3H)-one], the Ki turned out to be 7.2 nM. With `CC(c1ccc(C(F)(F)F)cc1F)n1cc(-c2cc(=O)[nH]c(Cc3ccccc3)n2)cn1` (stereo not shown) [Example 35, 2-benzyl-6-(1-(1-(2-fluoro-4-(trifluoromethyl)phenyl)ethyl)-1H-pyrazol-4-yl)pyrimidin-4(3H)-one], the Ki was found to be 60.4 nM. The same measure, in the same setting: the value for `COc1cccc(Cc2nc(-c3cnn(C(C)c4ccc(C(F)(F)F)cc4F)c3)cc(=O)[nH]2)c1` (single isomer, unassigned) [Example 140, (R)- or (S)-6-(1-(1-(2-fluoro-4-(trifluoromethyl)phenyl)ethyl)-1H-pyrazol-4-yl)-2-(3-methoxybenzyl)pyrimidin-4(3H)-one] was 2.6 nM.

The same experiment, now with this note: Lab B; read-out: Human PDE2 Ki (nM) Lab B.
For `Cc1nc(-n2cc([C@]3(c4ccc(C(F)(F)F)cc4)CCCO3)cn2)cc(=O)[nH]1` (single isomer, unassigned) [Example 21], the Ki came to 199 nM. As to `COc1ccc(Cc2nc(-c3cnn(C(C)c4ccc(C(F)(F)F)cc4F)c3)cc(=O)[nH]2)cc1OC` (single isomer, unassigned) [Example 66, (R)- or (S)-2-(3,4-dimethoxybenzyl)-6-(1-(1-(2-fluoro-4-(trifluoromethyl)phenyl)ethyl)-1H-pyrazol-4-yl)pyrimidin-4(3H)-one], the Ki was 0.5 nM.

On to `Cc1nc(-n2ccc([C@H](C)c3ccc(C(F)(F)F)cc3)n2)cc(=O)[nH]1` (single isomer, unassigned) [Example 6], for which the Ki came to 241 nM. Regarding `Cc1nc(-n2cc(Cc3ccc(OC(F)(F)F)cc3)cn2)cc(=O)[nH]1` [Example 30, 2-Methyl-6-(4-(4-(trifluoromethoxy)benzyl)-1H-pyrazol-1-yl)pyrimidin-4(3H)-one], the Ki came to 1110 nM. Still for that read-out and setting: the value for `Cc1nc(-c2ccn(C(C)c3ccc(C(F)(F)F)cc3)n2)cc(=O)[nH]1` (single isomer, unassigned) [Example 77, (R)- or (S)-2-methyl-6-(1-(1-(4-(trifluoromethyl)phenyl)ethyl)-1H-pyrazol-3-yl)pyrimidin-4(3H)-one] was 441 nM; that for `Cc1nc(-c2cn(C(C)c3ccc(C(F)(F)F)cc3)nc2C)cc(=O)[nH]1` (stereo not shown) [Example 80, 2-methyl-6-(3-methyl-1-(1-(4-(trifluoromethyl)phenyl)ethyl)-1H-pyrazol-4-yl)pyrimidin-4(3H)-one] was 140 nM; that for `Cc1nc(-n2cc(Cc3ccc(C(F)(F)F)cc3)cn2)cc(=O)[nH]1` [Example 48, 2-methyl-6-(4-(4-(trifluoromethyl)benzyl)-1H-pyrazol-1-yl)pyrimidin-4(3H)-one] was 219 nM. The same measure, in the same setting: the value for `Cc1nc(-n2cc([C@]3(c4ccc(C(F)(F)F)cc4)CCCO3)cn2)cc(=O)[nH]1` (single isomer, unassigned) [Example 22] was 31.5 nM; that for `CCC(c1ccc(C(F)(F)F)cc1)c1cnn(-c2cc(=O)[nH]c(C)n2)c1` (stereo not shown) [Example 129, 2-methyl-6-(4-(1-(4-(trifluoromethyl)phenyl)propyl)-1H-pyrazol-1-yl)pyrimidin-4(3H)-one] was 141 nM; that for `COc1ccc(Cc2nc(-c3cnn(C(C)c4ccc(S(F)(F)(F)(F)F)cc4)c3)cc(=O)[nH]2)cc1OC` (single isomer, unassigned) [Example 64, (R)- or (S)-2-(3,4-dimethoxybenzyl)-6-(1-(1-(4-(pentafluorosulfanyl)phenyl)ethyl)-1H-pyrazol-4-yl)pyrimidin-4(3H)-one] was 3.3 nM. On the same count and under the same terms, the value for `Cc1nc(-n2cc(C(C)c3ccc(C4CC4)cc3)cn2)cc(=O)[nH]1` (stereo not shown) [Example 39, 6-(4-(1-(4-cyclopropylphenyl)ethyl)-1H-pyrazol-1-yl)-2-methylpyrimidin-4(3H)-one] was 35.3 nM.
